For 4 compounds, TGI results are on record in PubChem BioAssay (NCI).

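Cultured in 96-well plates, cells were exposed to test compound for 48 hours across five concentrations. TGI marks complete inhibition of growth.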 A value given as a limit tells only on which side of the number the result lay.

The first assay relates to M14 melanoma. Kind of assay: NCI tumour cell line growth inhibition, 48 h.
Consider `O=[N+]([O-])c1ccc(-c2csc3nc(-c4ccccc4)nn23)cc1`, for which the TGI is above 100 µM.

Turning to `NC1CC(=O)c2sc(I)cc21` (centres undefined), the TGI is above 100 µM.

In turn, `COc1cccc(N=Cc2cc3cc(Br)ccc3nc2Cl)c1` had a TGI above 50 µM.

For the compound `O=C(/C=C(\O)c1ccccc1)C(=O)NNc1ccc([N+](=O)[O-])cc1[N+](=O)[O-]`, the TGI turned out to be 31.3 µM.

Another assay has as its system NCI/ADR-RES ovarian. Kind of assay: NCI tumour cell line growth inhibition, 48 h.
As to `O=[N+]([O-])c1ccc(-c2csc3nc(-c4ccccc4)nn23)cc1`, the TGI is above 100 µM.

`NC1CC(=O)c2sc(I)cc21` (centres undefined) gave a TGI above 100 µM.

`COc1cccc(N=Cc2cc3cc(Br)ccc3nc2Cl)c1`: the TGI is above 50 µM.

In turn, `O=C(/C=C(\O)c1ccccc1)C(=O)NNc1ccc([N+](=O)[O-])cc1[N+](=O)[O-]` registered a TGI of 36.6 µM.

The subject of another assay is HT29 colon. Kind of assay: NCI tumour cell line growth inhibition, 48 h.
`O=[N+]([O-])c1ccc(-c2csc3nc(-c4ccccc4)nn23)cc1` showed a TGI above 100 µM.

Compound `NC1CC(=O)c2sc(I)cc21` (centres undefined) came in with a TGI above 100 µM.

Turning to `COc1cccc(N=Cc2cc3cc(Br)ccc3nc2Cl)c1`, the TGI is above 50 µM.

A further assay relates to BT-549 breast. Kind of assay: NCI tumour cell line growth inhibition, 48 h.
Compound `O=[N+]([O-])c1ccc(-c2csc3nc(-c4ccccc4)nn23)cc1` showed a TGI above 100 µM.

In the case of `NC1CC(=O)c2sc(I)cc21` (centres undefined), the TGI is above 100 µM.

`COc1cccc(N=Cc2cc3cc(Br)ccc3nc2Cl)c1` yielded a TGI above 50 µM.

In turn, `O=C(/C=C(\O)c1ccccc1)C(=O)NNc1ccc([N+](=O)[O-])cc1[N+](=O)[O-]` displayed a TGI of 48.2 µM.

The subject of a further assay is HL-60(TB) leukemia. Kind of assay: NCI tumour cell line growth inhibition, 48 h.
In turn, `O=[N+]([O-])c1ccc(-c2csc3nc(-c4ccccc4)nn23)cc1` came in with a TGI above 100 µM.

The compound `NC1CC(=O)c2sc(I)cc21` (centres undefined) gave a TGI of 78.7 µM.

Turning to `COc1cccc(N=Cc2cc3cc(Br)ccc3nc2Cl)c1`, the TGI is above 50 µM.

Another assay relates to SK-MEL-5 melanoma. Kind of assay: NCI tumour cell line growth inhibition, 48 h.
In the case of `O=[N+]([O-])c1ccc(-c2csc3nc(-c4ccccc4)nn23)cc1`, the TGI is above 100 µM.

The compound `NC1CC(=O)c2sc(I)cc21` (centres undefined) had a TGI above 100 µM.

In the case of `COc1cccc(N=Cc2cc3cc(Br)ccc3nc2Cl)c1`, the TGI is above 50 µM.

As to `O=C(/C=C(\O)c1ccccc1)C(=O)NNc1ccc([N+](=O)[O-])cc1[N+](=O)[O-]`, the TGI was 60.1 µM.

A further assay deals with RXF 393 renal. Kind of assay: NCI tumour cell line growth inhibition, 48 h.
For the compound `O=[N+]([O-])c1ccc(-c2csc3nc(-c4ccccc4)nn23)cc1`, the TGI is above 100 µM.

Regarding `NC1CC(=O)c2sc(I)cc21` (centres undefined), the TGI is above 100 µM.

`COc1cccc(N=Cc2cc3cc(Br)ccc3nc2Cl)c1`: the TGI is above 50 µM.

As for `O=C(/C=C(\O)c1ccccc1)C(=O)NNc1ccc([N+](=O)[O-])cc1[N+](=O)[O-]`, the TGI was 35 µM.

The next assay has as its system OVCAR-8 ovarian. Kind of assay: NCI tumour cell line growth inhibition, 48 h.
Consider `O=[N+]([O-])c1ccc(-c2csc3nc(-c4ccccc4)nn23)cc1`, for which the TGI is above 100 µM.

Regarding `NC1CC(=O)c2sc(I)cc21` (centres undefined), the TGI was above 100 µM.

Regarding `COc1cccc(N=Cc2cc3cc(Br)ccc3nc2Cl)c1`, the TGI was above 50 µM.

`O=C(/C=C(\O)c1ccccc1)C(=O)NNc1ccc([N+](=O)[O-])cc1[N+](=O)[O-]` displayed a TGI of 53.6 µM.

The next assay deals with SK-MEL-28 melanoma. Kind of assay: NCI tumour cell line growth inhibition, 48 h.
On to `O=[N+]([O-])c1ccc(-c2csc3nc(-c4ccccc4)nn23)cc1`, for which the TGI is above 100 µM.

The compound `NC1CC(=O)c2sc(I)cc21` (centres undefined) gave a TGI above 100 µM.

For `COc1cccc(N=Cc2cc3cc(Br)ccc3nc2Cl)c1`, the TGI is above 50 µM.

As for `O=C(/C=C(\O)c1ccccc1)C(=O)NNc1ccc([N+](=O)[O-])cc1[N+](=O)[O-]`, the TGI was determined as 60.8 µM.

The test system of another assay is EKVX NSCLC. Kind of assay: NCI tumour cell line growth inhibition, 48 h.
Turning to `O=[N+]([O-])c1ccc(-c2csc3nc(-c4ccccc4)nn23)cc1`, the TGI is above 100 µM.

On to `NC1CC(=O)c2sc(I)cc21` (centres undefined), for which the TGI is above 100 µM.

`COc1cccc(N=Cc2cc3cc(Br)ccc3nc2Cl)c1` came in with a TGI above 50 µM.

Compound `O=C(/C=C(\O)c1ccccc1)C(=O)NNc1ccc([N+](=O)[O-])cc1[N+](=O)[O-]` gave a TGI of 56.3 µM.

For the next assay, the system named is MDA-N. Kind of assay: NCI tumour cell line growth inhibition, 48 h.
`O=[N+]([O-])c1ccc(-c2csc3nc(-c4ccccc4)nn23)cc1` gave a TGI above 100 µM.

Compound `NC1CC(=O)c2sc(I)cc21` (centres undefined) registered a TGI above 100 µM.

Compound `COc1cccc(N=Cc2cc3cc(Br)ccc3nc2Cl)c1` registered a TGI above 50 µM.

In the case of `O=C(/C=C(\O)c1ccccc1)C(=O)NNc1ccc([N+](=O)[O-])cc1[N+](=O)[O-]`, the TGI amounted to 78.1 µM.

The test system of a further assay is CCRF-CEM leukemia. Kind of assay: NCI tumour cell line growth inhibition, 48 h.
As for `O=[N+]([O-])c1ccc(-c2csc3nc(-c4ccccc4)nn23)cc1`, the TGI is above 100 µM.

Consider `NC1CC(=O)c2sc(I)cc21` (centres undefined), for which the TGI is above 100 µM.

As to `COc1cccc(N=Cc2cc3cc(Br)ccc3nc2Cl)c1`, the TGI was 48.8 µM.

Compound `O=C(/C=C(\O)c1ccccc1)C(=O)NNc1ccc([N+](=O)[O-])cc1[N+](=O)[O-]` showed a TGI of 43.5 µM.

In another assay the test system is CAKI-1 renal. Kind of assay: NCI tumour cell line growth inhibition, 48 h.
`O=[N+]([O-])c1ccc(-c2csc3nc(-c4ccccc4)nn23)cc1`: the TGI is above 100 µM.

In turn, `NC1CC(=O)c2sc(I)cc21` (centres undefined) yielded a TGI above 100 µM.

With `COc1cccc(N=Cc2cc3cc(Br)ccc3nc2Cl)c1`, the TGI is above 50 µM.

Regarding `O=C(/C=C(\O)c1ccccc1)C(=O)NNc1ccc([N+](=O)[O-])cc1[N+](=O)[O-]`, the TGI was 43.1 µM.

The test system of the next assay is IGROV1 ovarian. Kind of assay: NCI tumour cell line growth inhibition, 48 h.
Turning to `O=[N+]([O-])c1ccc(-c2csc3nc(-c4ccccc4)nn23)cc1`, the TGI is above 100 µM.

Compound `NC1CC(=O)c2sc(I)cc21` (centres undefined) showed a TGI above 100 µM.

With `COc1cccc(N=Cc2cc3cc(Br)ccc3nc2Cl)c1`, the TGI was above 50 µM.

Regarding `O=C(/C=C(\O)c1ccccc1)C(=O)NNc1ccc([N+](=O)[O-])cc1[N+](=O)[O-]`, the TGI was found to be 38.2 µM.
